Among the data in patent publication US8680339B2, “Herbicides” (Syngenta Limited, priority 2009, dated 2014) are pest or weed control values, retold here.

Format in all cases: in vivo
Test [1] concerns Alopecurus myosuroides (ALOMY). Kind of test: Pre-emergence herbicidal activity, glasshouse pot test. The conditions noted are these: Alopecurus myosuroides, 312 h, rate 250 g/ha, evaluated after 13 days, 100=total damage to plant, 0=no damage to plant. Here is the method:
(§1) Seeds of a variety of test species were sown in standard soil in pots. After cultivation for one day (pre-emergence) or after 8 days cultivation (post-emergence) under controlled conditions in a glasshouse (at 24/16° C., day/night; 14 hours light; 65% humidity), the plants were sprayed with an aqueous spray solution derived from the formulation of the technical active ingredient in acetone/water (50:50) solution containing 0.5% Tween 20 (polyoxyethelyene sorbitan monolaurate, CAS RN 9005-64-5). The test plants were then grown in a glasshouse under controlled conditions in a glasshouse (at 24/16° C., day/night; 14 hours light; 65% humidity) and watered twice daily. After 13 days for pre and post-emergence, the test was evaluated (100=total damage to plant; 0=no damage to plant). Test Plants: Lolium perenne (LOLPE), Alopecurus myosuroides (ALOMY), Echinochloa crus-galli (ECHCG), and Avena fatua (AVEFA). Pre-Emergence Activity

The test system of test [2] is Avena fatua (AVEFA). The description is as above. The conditions noted are these: Avena fatua, 312 h, rate 250 g/ha, evaluated after 13 days, 100=total damage to plant, 0=no damage to plant. The method, then: as §1
The test system of test [3] is Echinochloa crus-galli (ECHCG). The test is described as above. The conditions noted are these: Echinochloa crus-galli, 312 h, rate 250 g/ha, evaluated after 13 days, 100=total damage to plant, 0=no damage to plant. The method, then: as §1
In test [4] the test system is Lolium perenne (LOLPE). The description is as above. The settings on record: Lolium perenne, 312 h, rate 250 g/ha, evaluated after 13 days, 100=total damage to plant, 0=no damage to plant. Here is the method:
as §1

Test [5] deals with Alopecurus myosuroides (ALOMY). Description: Post-emergence herbicidal activity, glasshouse pot test. The settings on record: Alopecurus myosuroides, 312 h, rate 250 g/ha, evaluated after 13 days, 100=total damage to plant, 0=no damage to plant. The method, then:
as §1, with “Post-Emergence” for “Pre-Emergence”

Test [6] relates to Avena fatua (AVEFA). The test is described as above. The settings on record: Avena fatua, 312 h, rate 250 g/ha, evaluated after 13 days, 100=total damage to plant, 0=no damage to plant. Here is the method:
as §1, with “Post-Emergence” for “Pre-Emergence”

Test [7] has as its system Echinochloa crus-galli (ECHCG). Described as above. The conditions noted are these: Echinochloa crus-galli, 312 h, rate 250 g/ha, evaluated after 13 days, 100=total damage to plant, 0=no damage to plant. Here is the method: as §1, with “Post-Emergence” for “Pre-Emergence”
The test system of test [8] is Lolium perenne (LOLPE). Described as above. The conditions noted are these: Lolium perenne, 312 h, rate 250 g/ha, evaluated after 13 days, 100=total damage to plant, 0=no damage to plant. The method, then:
as §1, with “Post-Emergence” for “Pre-Emergence”

The pest or weed control is the degree to which the test organism was suppressed or injured, in per cent. In the case of `CCc1cc(Oc2ccc(Br)cc2F)ccc1C1=C(O)[C@H]2[C@@H](C1=O)[C@@H]1CC[C@H]2O1` [Compound A-1], the pest or weed control at 250 g/ha in test [1] was determined as 20%; in the test with Avena fatua (AVEFA) [2], 0%; in test [3], 30%; in the test on Lolium perenne (LOLPE) [4] it was 20%; in test [5] it was 70%; with Avena fatua (AVEFA) [6] it was 80%. The figures for the pest or weed control at 250 g/ha (in test [7]; in the test with Lolium perenne (LOLPE) [8]) were 100% and 70%, respectively.
As for `CCc1cc(Oc2ccc(Cl)cc2)ccc1C1=C(O)[C@H]2[C@@H](C1=O)[C@@H]1CC[C@H]2O1` [Compound A-2], the pest or weed control at 250 g/ha was determined as 30% in test [1]; 0% in the test with Avena fatua (AVEFA) [2]; 30% in test [3]; 60% in the test with Lolium perenne (LOLPE) [4]; 90% in test [5]; 90% with Avena fatua (AVEFA) [6]. Moreover, the pest or weed control at 250 g/ha in test [7] came to 100%; in the test with Lolium perenne (LOLPE) [8] it was 80%.
With `Cc1cc(Oc2ccc(Br)cc2F)cc(C)c1C1=C(O)[C@H]2[C@@H](C1=O)[C@@H]1CC[C@H]2O1` [Compound A-3, meso-(1R,2S,6R,7S)-4-(4-[4-bromo-2-fluorophenoxy]-2,6-dimethylphenyl)-10-oxatricyclo[5.2.1.0^2,6]decane-3,5-dione], the pest or weed control at 250 g/ha worked out at 80% in test [1]; 30% in the test on Avena fatua (AVEFA) [2]; 90% in test [3]; 80% in the test on Lolium perenne (LOLPE) [4]; 100% in test [5]; 90% in the test with Avena fatua (AVEFA) [6]. For the same compound, the figures for the pest or weed control at 250 g/ha (in test [7]; in the test on Lolium perenne (LOLPE) [8]) were 100% and 90%, respectively.
As for `Cc1cc(Oc2ccc(Cl)cc2)cc(C)c1C1=C(O)[C@H]2[C@@H](C1=O)[C@@H]1CC[C@H]2O1` [Compound A-4], the pest or weed control at 250 g/ha came to 100% in test [1]; 70% with Avena fatua (AVEFA) [2]; 90% in test [3]; 80% with Lolium perenne (LOLPE) [4]; 100% in test [5]; 90% in the test on Avena fatua (AVEFA) [6]. The pest or weed control at 250 g/ha (in test [7]; with Lolium perenne (LOLPE) [8]) was 100% in each case.
As for `Cc1cc(Oc2ccccc2F)cc(C)c1C1=C(O)[C@H]2[C@@H](C1=O)[C@@H]1CC[C@H]2O1` [Compound A-5], the pest or weed control at 250 g/ha in test [1] was found to be 40%; in the test with Avena fatua (AVEFA) [2], 30%; in test [3] it was 60%; in the test with Lolium perenne (LOLPE) [4] it was 50%; in test [5], 60%; in the test with Avena fatua (AVEFA) [6] it was 50%. Also, the pest or weed control at 250 g/ha in test [7] was found to be 90%; in the test with Lolium perenne (LOLPE) [8], 70%.
Consider `Cc1cc(Oc2ccc(F)cc2F)cc(C)c1C1=C(O)[C@H]2[C@@H](C1=O)[C@@H]1CC[C@H]2O1` [Compound A-6], for which the pest or weed control at 250 g/ha in test [1] amounted to 70%; in the test with Avena fatua (AVEFA) [2] it was 30%; in test [3] it was 70%; with Lolium perenne (LOLPE) [4], 80%; in test [5], 90%; with Avena fatua (AVEFA) [6] it was 70%. Also, the pest or weed control at 250 g/ha in test [7] was determined as 90%; in the test on Lolium perenne (LOLPE) [8] it was 70%.
`Cc1cc(Oc2ccc(Cl)cc2F)cc(C)c1C1=C(O)[C@H]2[C@@H](C1=O)[C@@H]1CC[C@H]2O1` [Compound A-7]: the pest or weed control at 250 g/ha in test [1] came out at 70%; in the test on Avena fatua (AVEFA) [2], 90%; in test [3], 100%; in the test with Lolium perenne (LOLPE) [4], 90%; in test [5] it was 100%; with Avena fatua (AVEFA) [6] it was 90%. Further, the pest or weed control at 250 g/ha (in test [7]; with Lolium perenne (LOLPE) [8]) was 100% throughout.
`Cc1cc(Oc2cccc(F)c2F)cc(C)c1C1=C(O)[C@H]2[C@@H](C1=O)[C@@H]1CC[C@H]2O1` [Compound A-8]: the pest or weed control at 250 g/ha in test [1] came out at 40%; with Avena fatua (AVEFA) [2], 0%; in test [3] it was 40%; with Lolium perenne (LOLPE) [4] it was 30%; in test [5], 80%; in the test on Avena fatua (AVEFA) [6], 40%. In addition, the pest or weed control at 250 g/ha in test [7] was 90%; with Lolium perenne (LOLPE) [8], 80%.
In the case of `Cc1cc(Oc2cc(F)ccc2F)cc(C)c1C1=C(O)[C@H]2[C@@H](C1=O)[C@@H]1CC[C@H]2O1` [Compound A-9], the pest or weed control at 250 g/ha in test [1] is 20%; with Avena fatua (AVEFA) [2], 0%; in test [3], 50%; with Lolium perenne (LOLPE) [4] it was 60%; in test [5] it was 60%; with Avena fatua (AVEFA) [6], 40%. Also, the pest or weed control at 250 g/ha was determined as 90% in test [7] and 60% in the test with Lolium perenne (LOLPE) [8].
As to `Cc1cc(Oc2ccccc2Cl)cc(C)c1C1=C(O)[C@H]2[C@@H](C1=O)[C@@H]1CC[C@H]2O1` [Compound A-10], the pest or weed control at 250 g/ha was 10% in test [1]; 0% with Avena fatua (AVEFA) [2]; 10% in test [3]; 20% in the test on Lolium perenne (LOLPE) [4]; 10% in test [5]; 0% with Avena fatua (AVEFA) [6]. In addition, the pest or weed control at 250 g/ha in test [7] was found to be 40%; in the test on Lolium perenne (LOLPE) [8], 30%.
Take `Cc1cc(Oc2ccc(Br)cc2)cc(C)c1C1=C(O)[C@H]2[C@@H](C1=O)[C@@H]1CC[C@H]2O1` [Compound A-11]: the pest or weed control at 250 g/ha is 90% in test [1]; 90% with Avena fatua (AVEFA) [2]; 70% in test [3]; 100% in the test with Lolium perenne (LOLPE) [4]; 90% in test [5]; 90% in the test with Avena fatua (AVEFA) [6]. Besides, the pest or weed control at 250 g/ha in test [7] turned out to be 100%; with Lolium perenne (LOLPE) [8], 90%.
As for `Cc1cc(Oc2ccc(Br)cc2Cl)cc(C)c1C1=C(O)[C@H]2[C@@H](C1=O)[C@@H]1CC[C@H]2O1` [Compound A-12], the pest or weed control at 250 g/ha stood at 40% in test [1]; 10% in the test on Avena fatua (AVEFA) [2]; 60% in test [3]; 70% in the test on Lolium perenne (LOLPE) [4]; 80% in test [5]; 70% in the test on Avena fatua (AVEFA) [6]. Further, the results for the pest or weed control at 250 g/ha (in test [7]; in the test with Lolium perenne (LOLPE) [8]) were 100% and 70%, respectively.
As for `Cc1cc(Br)ccc1Oc1cc(C)c(C2=C(O)[C@H]3[C@@H](C2=O)[C@@H]2CC[C@H]3O2)c(C)c1` [Compound A-13], the pest or weed control at 250 g/ha in test [1] was found to be 60%; in the test with Avena fatua (AVEFA) [2], 0%; in test [3] it was 70%; in the test on Lolium perenne (LOLPE) [4], 60%; in test [5], 80%; in the test on Avena fatua (AVEFA) [6], 30%. Besides, the values for the pest or weed control at 250 g/ha (in test [7]; in the test with Lolium perenne (LOLPE) [8]) were 50% and 60%, respectively.
As to `Cc1cc(Oc2cccc(Cl)c2)cc(C)c1C1=C(O)[C@H]2[C@@H](C1=O)[C@@H]1CC[C@H]2O1` [Compound A-14], the pest or weed control at 250 g/ha amounted to 40% in test [1]; 0% in the test on Avena fatua (AVEFA) [2]; 80% in test [3]; 70% in the test with Lolium perenne (LOLPE) [4]; 70% in test [5]; 30% in the test on Avena fatua (AVEFA) [6]. For the same compound, the pest or weed control at 250 g/ha in test [7] worked out at 80%; in the test with Lolium perenne (LOLPE) [8], 70%.
Turning to `Cc1cc(Oc2ccc(F)cc2)cc(C)c1C1=C(O)[C@H]2[C@@H](C1=O)[C@@H]1CC[C@H]2O1` [Compound A-15], the pest or weed control at 250 g/ha in test [1] turned out to be 60%; with Avena fatua (AVEFA) [2], 70%; in test [3] it was 70%; with Lolium perenne (LOLPE) [4] it was 90%; in test [5], 90%; in the test on Avena fatua (AVEFA) [6], 90%. The pest or weed control at 250 g/ha is 100% in test [7] and 90% in the test with Lolium perenne (LOLPE) [8].
